# Experimental data as given in patent US20040024024A1, “Aromatic sulfone hydroxamates and their use as protease inhibitors” (priority 2001, published 2004).
# How the values were obtained:
# Assay in all cases: In vitro MMP inhibition, IC50 determination (fluorogenic substrate I)
# Format in all cases: biochemical
# [1] = target: T1, Human recombinant MMP-1 (Homo sapiens, UniProt P03956)
# T1 construct: made in house; host or cells: MMP-1-transfected HT-1080 cells (spent media)
# T1 sequence (P03956 100-469): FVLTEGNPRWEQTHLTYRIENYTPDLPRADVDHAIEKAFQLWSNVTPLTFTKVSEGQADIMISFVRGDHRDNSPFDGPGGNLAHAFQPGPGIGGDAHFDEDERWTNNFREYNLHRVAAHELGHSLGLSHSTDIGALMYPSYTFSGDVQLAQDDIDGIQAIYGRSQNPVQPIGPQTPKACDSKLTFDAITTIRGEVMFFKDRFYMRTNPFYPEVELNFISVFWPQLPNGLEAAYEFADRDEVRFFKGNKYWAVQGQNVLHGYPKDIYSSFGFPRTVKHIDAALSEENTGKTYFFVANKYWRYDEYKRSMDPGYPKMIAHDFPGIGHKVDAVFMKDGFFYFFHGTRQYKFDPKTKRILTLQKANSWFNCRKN
# In short: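 APMA- or trypsin-activated enzyme, purified from spent media of transfected HT-1080 cells, incubated at room temperature with 4 μM MCA-Pro-Leu-Gly-Leu-Dpa-Ala-Arg-NH2 and graded inhibitor in Tris buffer pH 7.5 (10 mM CaCl2, 0.05% Brij). Cleavage read by fluorescence (ex 328/em 415 nm); IC50 from fluorescence reduction versus inhibitor concentration.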
# [2] = target: T2, Human recombinant MMP-2 (Homo sapiens, UniProt P08253)
# T2 construct: made in house; host or cells: MMP-2-transfected p2AHT2 cells
# T2 sequence (P08253 110-660): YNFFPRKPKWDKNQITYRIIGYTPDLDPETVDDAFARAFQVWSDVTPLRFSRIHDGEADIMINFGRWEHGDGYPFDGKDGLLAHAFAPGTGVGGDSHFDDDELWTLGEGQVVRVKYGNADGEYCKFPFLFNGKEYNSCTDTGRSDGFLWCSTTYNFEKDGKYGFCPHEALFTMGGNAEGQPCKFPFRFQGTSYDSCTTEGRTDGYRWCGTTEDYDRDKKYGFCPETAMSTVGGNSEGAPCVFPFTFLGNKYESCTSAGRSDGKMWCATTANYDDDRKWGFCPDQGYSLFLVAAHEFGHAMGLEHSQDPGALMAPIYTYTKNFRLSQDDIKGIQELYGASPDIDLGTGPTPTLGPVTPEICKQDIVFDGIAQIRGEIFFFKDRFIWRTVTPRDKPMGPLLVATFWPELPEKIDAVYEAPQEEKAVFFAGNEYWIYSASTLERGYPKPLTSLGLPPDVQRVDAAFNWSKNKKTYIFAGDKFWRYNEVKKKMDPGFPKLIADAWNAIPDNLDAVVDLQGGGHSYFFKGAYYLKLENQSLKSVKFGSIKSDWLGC
# In short: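 APMA- or trypsin-activated recombinant MMP-2 was incubated at room temperature with serial inhibitor dilutions in Tris buffer pH 7.5 (100 mM NaCl, 10 mM CaCl2, 0.05% Brij), with DMSO from 1% stocks, and 4 μM substrate I. Cleavage was read by fluorescence at 328/415 nm; IC50 was taken from the loss of fluorescence versus inhibitor concentration.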
# [3] = target: T3, Human recombinant MMP-9 (Homo sapiens, UniProt P14780)
# T3 construct: made in house; host or cells: MMP-9-transfected HT1080 cells (spent media)
# In short: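 MMP-9 proenzyme purified from transfected HT1080 cell media, activated with APMA or trypsin. Compound dilutions in pH 7.5 Tris/NaCl/CaCl2 buffer with 0.05% polyoxyethylene 23 lauryl ether, incubated at room temperature with 4 μM MCA/Dpa substrate I. IC50 from fluorescence loss (ex 328, em 415 nm) versus inhibitor concentration.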
# [4] = target: T4, Human recombinant MMP-13 (Homo sapiens, UniProt P45452)
# T4 construct: made in house; host or cells: baculovirus / insect cells
# In short: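 Fluorescence at 415 nm (excitation 328 nm) reports Gly-Leu cleavage of 4 μM quenched methoxycoumarin peptide substrate I. Human recombinant MMP-13, activated by trypsin or APMA, was incubated at room temperature with varied inhibitor concentrations in pH 7.5 Tris/NaCl/CaCl2 buffer; IC50 derived from reduced fluorescence.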
# [5] = target: T5, Human recombinant MMP-14 (Homo sapiens, UniProt P50281)
# T5 construct: The catalytic domain enzyme was expressed in E. coli inclusion bodies, solubilized in urea; made in house
# In short: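 Catalytic-domain MMP-14, expressed in E. coli and refolded, activated with APMA or trypsin; compounds incubated at room temperature with 4 μM fluorogenic substrate I (MCA-PLGL-Dpa-AR-NH2) in Tris/NaCl/CaCl2 buffer, pH 7.5. Fluorescence at ex 328/em 415 nm; IC50 from loss of fluorescence versus inhibitor concentration.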
# [6] = substrate (I) 4 μM, room temperature, values not in parenthesis
# [7] = value outside parentheses (Ki in parenthesis)
# T3 sequence (P14780 107-707 limits assumed): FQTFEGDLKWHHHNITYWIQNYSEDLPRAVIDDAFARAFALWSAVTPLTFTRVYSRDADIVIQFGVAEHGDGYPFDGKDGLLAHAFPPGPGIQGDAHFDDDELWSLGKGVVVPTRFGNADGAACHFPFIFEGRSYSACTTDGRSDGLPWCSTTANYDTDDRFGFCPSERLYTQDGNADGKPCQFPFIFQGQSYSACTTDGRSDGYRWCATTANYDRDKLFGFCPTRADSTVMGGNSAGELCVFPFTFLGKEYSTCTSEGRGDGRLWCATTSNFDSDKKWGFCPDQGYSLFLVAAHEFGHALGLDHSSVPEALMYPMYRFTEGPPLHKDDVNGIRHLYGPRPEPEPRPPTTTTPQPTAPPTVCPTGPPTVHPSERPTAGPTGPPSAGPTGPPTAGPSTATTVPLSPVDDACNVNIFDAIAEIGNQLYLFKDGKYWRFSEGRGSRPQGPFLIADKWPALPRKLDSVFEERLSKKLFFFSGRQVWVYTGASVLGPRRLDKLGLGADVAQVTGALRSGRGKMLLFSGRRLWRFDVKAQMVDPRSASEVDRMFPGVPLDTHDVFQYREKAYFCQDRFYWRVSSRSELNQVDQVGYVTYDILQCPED
"IC50 [1, 7] [µM]","IC50 [2, 7] [µM]","IC50 [3, 7] [µM]","IC50 [4, 7] [µM]","IC50 [5, 7] [µM]",SMILES,also measured
> 10,0.0582,> 10,0.0004,> 10,O=C(CCCCOc1ccc(S(=O)(=O)C2(C(=O)NO)CCOCC2)cc1)c1ccc2ccccc2c1 [Example 489],–
> 10,> 10,> 10,0.09,> 10,CC(C)(COc1ccc(S(=O)(=O)C2(C(=O)NO)CCOCC2)cc1)CSc1ccccc1 [Example 437],–
> 10,0.145,0.7,0.025,> 10,CCCCOCCCNc1ccc(S(=O)(=O)C2(C(=O)NO)CCOCC2)cc1 [Example 460],–
> 10,0.004,0.14,0.001,2.5,CC(C)(COc1ccc(S(=O)(=O)C2(C(=O)NO)CCOCC2)cc1)CS(=O)(=O)Cc1cccc(OC(F)(F)F)c1 [Example 440],–
> 10,0.004,0.18,0.0003,1.8,COc1ccc(CCCOc2ccc(S(=O)(=O)C3(C(=O)NO)CCOCC3)cc2)cc1 [Example 465],–

# Second part, the compound before the results:
SMILES,"IC50 [1, 7] [µM]","IC50 [2, 7] [µM]","IC50 [3, 7] [µM]","IC50 [4, 7] [µM]","IC50 [5, 7] [µM]",also measured
O=C1N(CCCOc2ccc(S(=O)(=O)C3(C(=O)NO)CCOCC3)cc2)CCN1c1ccc(OC(F)(F)F)cc1 [Example 194],–,–,–,–,–,IC50 ([1]; value outside parenthesis): > 10 µM; IC50 ([2]; value outside parenthesis): 0.222 µM; IC50 ([3]; value outside parenthesis): 0.516 µM; IC50 ([4]; value outside parenthesis): 0.0062 µM; IC50 ([5]; value outside parenthesis): > 10 µM
"COc1ccc(/C(C)=C/CCCOc2ccc(S(=O)(=O)C3(C(=O)NO)CCOCC3)cc2)cc1 [Example 28, tetrahydro-N-hydroxy-4-[[4[[(4E)-5-(4-methoxyphenyl)-4-hexenyl]oxy]phenyl]sulfonyl]-2H-pyran-4-carboxamide]",–,–,–,–,–,"IC50 [1, 6]: > 10 µM; IC50 [2, 6]: 0.0764 µM; IC50 [3, 6]: 3.71 µM; IC50 [4, 6]: 0.007 µM; IC50 [5, 6]: > 10 µM"
O=C(CCCOc1ccc(S(=O)(=O)C2(C(=O)NO)CCOCC2)cc1)N1CC[C@@H](c2ccccc2)[C@@H](O)C1 [Example 652],–,–,–,–,–,IC50 ([1]; value outside parentheses): 3.67 µM; IC50 ([2]; value outside parentheses): 0.0766 µM; IC50 ([3]; value outside parentheses): 0.224 µM; IC50 ([4]; value outside parentheses): 0.00095 µM; IC50 ([5]; value outside parentheses): > 10 µM
O=C(NO)C1(S(=O)(=O)c2ccc(OCCSc3nc4ccccc4s3)cc2)CCOCC1 [Example 341],> 10,0.0168,1.12,0.0005,6.4,–
O=C(NO)C1(S(=O)(=O)c2ccc(OCCCSc3nc4ccc(Cl)cc4o3)cc2)CCOCC1 [Example 408],> 10,0.09,0.049,0.0025,6.81,–
O=C(NO)C1(S(=O)(=O)c2ccc(OCCOCc3cccc([N+](=O)[O-])c3)cc2)CCOCC1 [Example 662],–,–,–,–,–,IC50 ([1]; value outside parentheses): 2.31 µM; IC50 ([2]; value outside parentheses): 0.00713 µM; IC50 ([3]; value outside parentheses): 0.0443 µM; IC50 ([4]; value outside parentheses): 0.0009 µM; IC50 ([5]; value outside parentheses): 1.67 µM
O=C(NO)C1(S(=O)(=O)c2ccc(OCCCc3nc(-c4c(Cl)cccc4Cl)no3)cc2)CCOCC1 [Example 214],–,–,–,–,–,IC50 ([1]; value outside parenthesis): > 10 µM; IC50 ([2]; value outside parenthesis): 0.0158 µM; IC50 ([3]; value outside parenthesis): 4.24 µM; IC50 ([4]; value outside parenthesis): 0.0033 µM; IC50 ([5]; value outside parenthesis): > 10 µM
O=C(NO)C1(S(=O)(=O)c2ccc(OCCSc3nc4ccccc4o3)cc2)CCOCC1 [Example 410],4.7,0.012,0.202,0.0011,0.515,–
